# Patent US6821967B2, “Substituted piperazine derivatives, the preparation thereof and their use as medicaments” (Boehringer Ingelheim Pharma KG, priority 1999, dated 2004)
row,Structure (SMILES),melting point [°C]
1,"COc1ccc(CNC(=O)C2(CCCCN3CCN(c4ncc5ccccc5n4)CC3)c3ccccc3-c3ccccc32)cc1 [Example 74, 9-[4-(4-quinazolin-2-yl-piperazin-1-yl)-butyl]-9H-fluorene-9-carboxylic acid-4-methoxy-benzylamide]",143 to 144
2,"O=C(NCc1ccc(F)cc1)C1(CCCCN2CCN(c3ccc4c(Cl)cccc4n3)CC2)c2ccccc2-c2ccccc21 [Example 54, 9-{4-[4-(5-chloro-quinolin-2-yl)-piperazin-1-yl]-butyl}-9H-fluorene-9-carboxylic acid-4-fluoro-benzylamide]",140
3,"COc1ccc(CNC(=O)C2(CCCCN3CCN(c4ccc5ccccc5n4)CC3)c3ccccc3-c3ccccc32)cc1OC [Example 83, 9-[4-(4-quinolin-2-yl-piperazin-1-yl)-butyl]-9H-fluorene-9-carboxylic acid-3,4-dimethoxy-benzylamide]",118
4,"COc1cccc(CNC(=O)C2(CCCCN3CCN(c4ccc5ccccc5n4)CC3)c3ccccc3-c3ccccc32)c1 [Example 81, 9-[4-(4-quinolin-2-yl-piperazin-1-yl)-butyl]-9H-fluorene-9-carboxylic acid-3-methoxy-benzylamide]",114 to 116
5,"C[C@@H]1CN(c2ccc3ccccc3n2)C[C@H](C)N1CCCCC1(C(=O)NCC(F)(F)F)c2ccccc2Oc2ccccc21 [Example 111, 9-[4-(cis-2,6-dimethyl-4-quinolin-2-yl-piperazin-1-yl)-butyl]-9H-xanthene-9-carboxylic acid-(2,2,2-trifluoro-ethyl)-amide]",177
6,"O=C(NCC(F)(F)F)C1(CCCCN2CCN(c3nc4ccc(Cl)cc4s3)CC2)c2ccccc2-c2ccccc21 [Example 24, 9-{4-[4-(6-chloro-benzothiazol-2-yl)-piperazin-1-yl]-butyl}-9H-fluorene-9-carboxylic acid-(2,2,2-trifluoro-ethyl)-amide]",187
7,"Cn1c(N2CCN(CCCCC3(C(=O)NCC(F)(F)F)c4ccccc4-c4ccccc43)CC2)nc2ccc(F)cc21 [Example 17, 9-{4-[4-(6-fluoro-1-methyl-1H-benzimidazol-2-yl)-piperazin-1-yl]-butyl}-9H-fluorene-9-carboxylic acid-(2,2,2-trifluoro-ethyl)-amide]",54
8,"O=C(NCC(F)(F)F)C1(CCCCN2CCN(c3nc4ccccc4s3)CC2)c2ccccc2Oc2ccccc21 [Example 100, 9-[4-(4-benzothiazol-2-yl-piperazin-1-yl)-butyl]-9H-xanthene-9-carboxylic acid-(2,2,2-trifluoro-ethyl)-amide]",58 to 62
9,"COc1ccc(CNC(=O)C2(CCCCN3CCN(c4nc5ccccc5s4)CC3)c3ccccc3-c3ccccc32)cc1 [Example 76, 9-[4-(4-benzothiazol-2-yl-piperazin-1-yl)-butyl]-9H-fluorene-9-carboxylic acid-4-methoxy-benzylamide]",145
10,"CCn1c(N2CCN(CCCCC3(C(=O)NCc4ccc(F)cc4)c4ccccc4-c4ccccc43)CC2)nc2ccccc21 [Example 61, 9-{4-[4-(1-ethyl-1H-benzimidazol-2-yl)-piperazin-1-yl]-butyl}-9H-fluorene-9-carboxylic acid-4-fluoro-benzylamide]",166
11,"Cn1c(N2CCN(CCCCC3(C(=O)NCC(F)(F)C(F)(F)F)c4ccccc4-c4ccccc43)CC2)nc2ccccc21 [Example 87, 9-{4-[4-(1-methyl-1H-benzimidazol-2-yl)-piperazin-1-yl]-butyl}-9H-fluorene-9-carboxylic acid-(2,2,3,3,3-pentafluoro-propyl)-amide]",120
12,"COc1cccc2ccc(N3CCN(CCCCC4(C(=O)NCC(F)(F)F)c5ccccc5-c5ccccc54)CC3)nc12 [Example 30, 9-{4-[4-(8-methoxy-quinolin-2-yl)-piperazin-1-yl]-butyl}-9H-fluorene-9-carboxylic acid-(2,2,2-trifluoro-ethyl)-amide]",74
13,"O=C(NCc1ccc(F)cc1F)C1(CCCCN2CCN(c3ccc4ccccc4n3)CC2)c2ccccc2-c2ccccc21 [Example 84, 9-[4-(4-quinolin-2-yl-piperazin-1-yl)-butyl]-9H-fluorene-9-carboxylic acid-2,4-difluoro-benzylamide]",116 to 118
14,"C[C@@H]1CN(c2ccc3ccccc3n2)C[C@H](C)N1CCCCC1(C(=O)NCc2ccc(F)c(F)c2)c2ccccc2-c2ccccc21 [Example 98, 9-[4-(cis-2,6-dimethyl-4-quinolin-2-yl-piperazin-1-yl)-butyl]-9H-fluorene-9-carboxylic acid-3,4-difluoro-benzylamide]",162
15,"COC(=O)CCNC(=O)C1(CCCCN2CCN(c3ccc4ccccc4n3)CC2)c2ccccc2-c2ccccc21 [Example 94, 9-[4-(4-quinolin-2-yl-piperazin-1-yl)-butyl]-9H-fluorene-9-carboxylic acid-(2-methoxycarbonyl-ethyl)-amide]",110 to 112
16,"CCCCNC(=O)C1(CCCCN2CCN(c3ccc4ccccc4n3)CC2)c2ccccc2Oc2ccccc21 [Example 118, 9-[4-(4-quinolin-2-yl-piperazin-1-yl)-butyl]-9H-xanthene-9-carboxylic acid-Butylamide]",45 to 53

row,Structure (SMILES),melting point [°C]
1,"O=C(NCC(F)(F)F)C1(CCCCN2CCN(c3cnc4ccccc4n3)CC2)c2ccccc2-c2ccccc21 [Example 22, 9-[4-(4-quinoxalin-2-yl-piperazin-1-yl)-butyl]-9H-fluorene-9-carboxylic acid-(2,2,2-trifluoro-ethyl)-amide]",142 to 145
2,"O=C(NCC(F)(F)F)C1(CCCCN2CCN(c3ccc4cccc(Cl)c4n3)CC2)c2ccccc2-c2ccccc21 [Example 29, 9-{4-[4-(8-chloro-quinolin-2-yl)-piperazin-1-yl]-butyl}-9H-fluorene-9-carboxylic acid-(2,2,2-trifluoro-ethyl)-amide]",121
3,"O=C(NCC(F)(F)F)C1(CCCCN2CCN(c3ccc4ccc(Cl)cc4n3)CC2)c2ccccc2-c2ccccc21 [Example 26, 9-{4-[4-(7-chloro-quinolin-2-yl)-piperazin-1-yl]-butyl}-9H-fluorene-9-carboxylic acid-(2,2,2-trifluoro-ethyl)-amide]",146 to 148
4,"C[C@@H]1CN(c2nc3ccccc3o2)C[C@H](C)N1CCCCC1(C(=O)NCC(F)(F)F)c2ccccc2-c2ccccc21 [Example 46, 9-[4-(4-benzoxazol-2-yl-cis-2,6-dimethyl-piperazin-1-yl)-butyl]-9H-fluorene-9-carboxylic acid-(2,2,2-trifluoro-ethyl)-amide]",163 to 165
5,"O=C(NCC(F)(F)F)C1(CCCCN2CCN(c3ccc4ccccc4n3)CC2)c2ccccc2Oc2ccccc21 [Example 103, 9-[4-(4-quinolin-2-yl-piperazin-1-yl)-butyl]-9H-xanthene-9-carboxylic acid-(2,2,2-trifluoro-ethyl)-amide]",178
6,"O=C(NCC(F)(F)F)C1(CCCCN2CCN(c3ccc4c(Cl)cccc4n3)CC2)c2ccccc2Oc2ccccc21 [Example 104, 9-{4-[4-(5-chloro-quinolin-2-yl)-piperazin-1-yl]-butyl}-9H-xanthene-9-carboxylic acid-(2,2,2-trifluoro-ethyl)-amide]",160
7,"C[C@@H]1CN(c2nc3ccccc3s2)C[C@H](C)N1CCCCC1(C(=O)NCC(F)(F)F)c2ccccc2-c2ccccc21 [Example 45, 9-[4-(4-benzothiazole-2-yl-cis-2,6-dimethyl-piperazin-1-yl)-butyl]-9H-fluorene-9-carboxylic acid-(2,2,2-trifluoro-ethyl)-amide]",163 to 165
8,"C[C@@H]1CN(c2nc3ccccc3s2)C[C@H](C)N1CCCCC1(C(=O)NCc2ccc(F)cc2)c2ccccc2-c2ccccc21 [Example 70, 9-[4-(4-benzothiazol-2-yl-cis-2,6-dimethyl-piperazin-1-yl)-butyl]-9H-fluorene-9-carboxylic acid-4-fluoro-benzylamide]",171
9,"Cn1c(N2CCN(CCCCC3(C(=O)NCc4ccc(F)cc4)c4ccccc4-c4ccccc43)CC2)nc2cccnc21 [Example 63, 9-{4-[4-(3-methyl-3H-imidazo[4,5]-pyridin-2-yl)-piperazin-1-yl]-butyl}-9H-fluorene-9-carboxylic acid-4-fluoro-benzylamide]",153
10,"CCn1c(N2CCN(CCCCC3(C(=O)NCC(F)(F)F)c4ccccc4-c4ccccc43)CC2)nc2ccccc21 [Example 11, 9-{4-[4-(1-ethyl-1H-benzimidazol-2-yl)-piperazin-1-yl]-butyl}-9H-fluorene-9-carboxylic acid-(2,2,2-trifluoro-ethyl)-amide]",55
11,"C[C@H]1CN(c2ccc3ccccc3n2)CCN1CCCCC1(C(=O)NCC(F)(F)F)c2ccccc2-c2ccccc21 [Example 38, 9-{4-[(S)-2-methyl-4-quinolin-2-yl-piperazin-1-yl]-butyl}-9H-fluorene-9-carboxylic acid-(2,2,2-trifluoro-ethyl)-amide]",102
12,"CCCNC(=O)C1(CCCCN2CCN(c3nc4ccccc4n3C)CC2)c2ccccc2-c2ccccc21 [Example 91, 9-{4-[4-(1-methyl-1H-benzimidazol-2-yl)-piperazin-1-yl]-butyl}-9H-fluorene-9-carboxylic acid propylamide]",126
13,"C[C@H]1CN(c2ccc3ccccc3n2)CCN1CCCCC1(C(=O)NCc2ccc(F)cc2)c2ccccc2-c2ccccc21 [Example 64, 9-{4-[(S)-2-methyl-4-quinolin-2-yl-piperazin-1-yl]-butyl}-9H-fluorene-9-carboxylic acid-4-fluoro-benzylamide]",124
14,"O=C(NCC(F)(F)F)C1(CCCCN2CCN(c3cnc4c(Cl)cccc4n3)CC2)c2ccccc2-c2ccccc21 [Example 23, 9-{4-[4-(5-chloro-quinoxalin-2-yl)-piperazin-1-yl]-butyl}-9H-fluorene-9-carboxylic acid-(2,2,2-trifluoro-ethyl)-amide]",74
15,"O=C(NCc1ccc(F)cc1)C1(CCCCN2CCN(c3nc4ccccc4s3)CC2)c2ccccc2-c2ccccc21 [Example 59, 9-[4-(4-benzothiazol-2-yl-piperazin-1-yl)-butyl]-9H-fluorene-9-carboxylic acid-4-fluoro-benzylamide]",160
